Data published in publication PMC7987348, “Structural basis for human TRPC5 channel inhibition by two distinct inhibitors” (eLife, 2021).
Positions count from the first letter of the chain named. Read-outs that look alike come from different tables or passages of the source.

What was measured:
[1] = molecular target: T1, hTRPC5 WT (Homo sapiens, UniProt Q9UL62); assay: FLIPR calcium assay, inhibition of extracellular calcium-induced intracellular calcium increase; assay type: cell-based
T1 construct: We use full-length nontagged hTRPC5 construct for FLIPR assay unless indicated otherwise; expressed in transfected cells; host or cells: AD293
T1 sequence (Q9UL62 1-973): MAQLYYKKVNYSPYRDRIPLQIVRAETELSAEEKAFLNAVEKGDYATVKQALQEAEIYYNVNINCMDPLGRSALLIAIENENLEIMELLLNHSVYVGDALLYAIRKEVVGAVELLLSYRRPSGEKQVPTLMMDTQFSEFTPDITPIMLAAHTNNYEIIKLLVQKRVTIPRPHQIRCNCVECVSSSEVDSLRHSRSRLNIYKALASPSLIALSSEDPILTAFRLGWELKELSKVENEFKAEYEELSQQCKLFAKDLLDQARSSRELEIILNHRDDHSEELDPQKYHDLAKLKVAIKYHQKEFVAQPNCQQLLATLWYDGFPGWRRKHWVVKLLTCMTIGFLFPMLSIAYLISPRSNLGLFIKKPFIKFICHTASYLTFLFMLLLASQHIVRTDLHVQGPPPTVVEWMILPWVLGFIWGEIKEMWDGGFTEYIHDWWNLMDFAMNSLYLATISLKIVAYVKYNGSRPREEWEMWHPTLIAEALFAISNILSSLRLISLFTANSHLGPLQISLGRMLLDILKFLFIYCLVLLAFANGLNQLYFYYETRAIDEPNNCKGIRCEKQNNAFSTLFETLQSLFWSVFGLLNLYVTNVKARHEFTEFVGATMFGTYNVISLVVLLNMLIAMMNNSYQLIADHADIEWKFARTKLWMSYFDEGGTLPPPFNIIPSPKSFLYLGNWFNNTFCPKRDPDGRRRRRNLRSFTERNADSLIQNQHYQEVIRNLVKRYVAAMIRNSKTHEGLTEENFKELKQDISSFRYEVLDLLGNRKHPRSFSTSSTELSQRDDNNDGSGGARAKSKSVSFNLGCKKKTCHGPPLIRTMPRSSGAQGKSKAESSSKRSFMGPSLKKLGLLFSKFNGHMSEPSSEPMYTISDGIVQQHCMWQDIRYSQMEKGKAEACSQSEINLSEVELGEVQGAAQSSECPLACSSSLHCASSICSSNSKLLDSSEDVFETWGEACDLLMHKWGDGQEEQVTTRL

[2] = molecular target: T2, hTRPC5 S495A (Homo sapiens, UniProt Q9UL62, S495A); assay: FLIPR calcium assay, hTRPC5 mutant S495A; assay type: cell-based
T2 construct: We use full-length nontagged hTRPC5 construct for FLIPR assay unless indicated otherwise; expressed in transfected cells; host or cells: AD293
T2 sequence (Q9UL62 1-973 S495A): T1 sequence (Q9UL62 1-973) with S495A
Description: […]. Then the suspended cell culture was further diluted for 5.4- to 7-fold with culture medium and seeded onto black well, clear bottom, poly-D-lysine-coated 96-well plate (Costar) and cultured overnight. We use full-length nontagged hTRPC5 construct for FLIPR assay unless indicated otherwise. hTRPC5 plasmids were transfected into AD293 cells (60-80% confluence) with PEI. 30–40 hr post-transfection, culture medium was discarded and cells were incubated with 50 μl per well of 4 μM Rhod-2/AM (AAT Bioquest) in TARODES’s buffer (10 mM HEPES, 150 mM NaCl, 4 mM KCl, 2 mM MgCl2, 2 mM CaCl2, 11 mM glucose, pH 7.4) supplemented with 0.02% Pluronic F-127 (Sigma) for 5 min in dark at room temperature. Then dye was removed and replaced with 50 μl of TARODE’s buffer per well. The application of compounds and detection of intracellular calcium elevation were performed using FLIPR-TETRA (Molecular Devices) at room temperature (25–27°C). Fluorescence signals were read with excitation/emission at 510–545/565–625 nm.
[…]. Then fluorescence was measured for 300 s.
Buffer A contains 2× concentration of working concentration of inhibitor. […]. for control-Min, both buffer A and buffer B were replaced by TARODE’s buffer.
[…]; the average of fluorescence value of last 20 time points was considered as the ‘end fluorescence’. The value of ‘end fluorescence’ minus ‘start fluorescence’ was considered as ‘signal value’ for each well. […].
Three independent experiments were performed on different days (biological replicates), with each experiment containing three replicates (technique replicates).

[3] = molecular target: T3, hTRPC5 (Homo sapiens, UniProt Q9UL62); assay: Whole cell recording of EA-elicited hTRPC5 currents in low calcium condition; settings: 50 μM CMZ; 200 nM EA; 1 mM EGTA and 1 mM EDTA to chelate intracellular Ca2+; −60 mV
T3 sequence (Q9UL62 1-973): T1 sequence (Q9UL62 1-973)

[4] = CMZ, 14 mM extracellular calcium, read-out: IC50
[5] = CMZ, log of IC50 in μM, logIC50 ± SEM, n = 3, read-out: LogIC50 (converted)
[6] = read-out: normalized RFU (% WT), Clemizole 0.200195 μM, 14 mM Ca2+, each column one independent experiment
[7] = read-out: normalized RFU (% WT), Clemizole 0.800781 μM, 14 mM Ca2+, each column one independent experiment
[8] = read-out: normalized RFU (% WT), Clemizole 1.60156 μM, 14 mM Ca2+, each column one independent experiment

For `Clc1ccc(Cn2c(CN3CCCC3)nc3ccccc32)cc1` [CMZ, clemizole], the Hill slope ([1]; CMZ) was −2.52, the IC50 [1, 4] was 3.07 µM and the IC50 [1, 5] was 3.09 µM. It also gave a remaining activity at 0.200195 µM [1, 6] of 76.4%, a remaining activity at 0.800781 µM [1, 7] of 72.6% and a remaining activity at 1.60156 µM [1, 8] of 70.5%. For the same compound, the Hill slope ([2]; CMZ) was −1.21, the IC50 [2, 4] was 3.03 µM and the IC50 [2, 5] was 3.02 µM. For the same compound, the remaining activity at 0.200195 µM [2, 6] was 83%, the remaining activity at 0.400391 µM ([2]; read-out: normalized RFU (% WT), Clemizole 0.400391 μM, 14 mM Ca2+, each column one independent experiment) was 78.4% and the remaining activity at 0.800781 µM [2, 7] was 82%. It also gave a remaining activity at 1.60156 µM [2, 8] of 79.3%, a remaining activity at 3.20312 µM ([2]; read-out: normalized RFU (% WT), Clemizole 3.20312 μM, 14 mM Ca2+, each column one independent experiment) of 50.6% and a remaining activity at 6.40625 µM ([2]; read-out: normalized RFU (% WT), Clemizole 6.40625 μM, 14 mM Ca2+, each column one independent experiment) of 46.5%. For the same compound, the remaining activity at 12.8125 µM ([2]; read-out: normalized RFU (% WT), Clemizole 12.8125 μM, 14 mM Ca2+, each column one independent experiment) was 40.3% and the “inhibition of EA-elicited currents” value [3] was “could inhibit EA-elicited currents”.
